The record followed here is US11708352B2, “Anti-cancer compounds” (THE REGENTS OF THE UNIVERSITY OF CALIFORNIA, priority 2015, dated 2023).

Each structure is given as a SMILES string.

Test [1] has as its target T1, PARP1 (Homo sapiens, UniProt P09874).
T1 construct: purchased Trevigen 4677-096-K
The experiment in a line: PARP enzymatic activity inhibition (Trevigen HT Universal PARP Assay Kit). It is filed as biochemical. Here is the method:
PARP Enzymatic Activity Inhibition: Determination of IC50 Values for Selected Compounds (Data in FIG. 1)
The half maximal inhibitory concentration (IC50) with respect to PARP inhibition was determined for each test compound by using Trevigen's HT Universal PARP Assay Kit, according to the manufacturer's protocol (Cat #4677-096-K, Gaithersburg, Md.). This assay measures the incorporation of biotinylated poly(ADP-ribose) onto histone proteins in a 96-well strip well format. This assay is ideal for the determination of IC50 values of known or suspected PARP inhibitors. Briefly, stock solutions of each test compound were prepared in DMSO. Histone strip wells were incubated for 30 minutes at room temperature with 50 μl/well of 1×PARP Buffer to rehydrate the histones. Serial dilutions of either test compound were added to appropriate wells. Diluted PARP enzyme (0.5 Unit/well) was then added to the wells containing compounds, and incubated for 10 minutes at room temperature. Subsequently, 25 μl of 1×PARP Cocktail, containing activated DNA, was distributed into each well. Three types of control wells were also analyzed; i. A negative control without PARP was prepared to determine background absorbance. ii. An activity control for PARP Inhibitor Study: 0.5 Unit/well PARP-HSA without inhibitors. These wells provided the 100% activity reference point. iii. And a PARP Standard Curve: Serial dilution of the PARP-HAS standard were prepared in cold microtubes with 1×PARP Buffer such that the total activity is 1 Unit/25 μl, 0.5 Units/25 μl, 0.25 Units/25 μl, 0.1 Units/25 μl, 0.05 Units/25 μl, 0.025 Units/25 and 0.01 Units/25 μl. 25 μl of each standard was added to triplicate wells. Following a 60 minutes incubation at room temperature, the strip wells were washed twice with 1×PBS+0.1% Triton X-100, and twice with 1×PBS. For activity detection, 50 μl per well of diluted Strep-HRP was added, and then incubated at room temperature for 60 minutes. Subsequently, 50 μl per well of pre-warmed TACS-Sapphire™ colorimetric substrate was added followed by a 15 minutes incubation, in the dark, at room temperature. The reactions were then stopped by adding 50 μl per well of 0.2M HCl or 5% Phosphoric Acid and read the absorbance at 450 nm.
The IC50 values were determined by performing non-linear regression analysis fitting velocities and the logarithm of inhibitor concentrations to a sigmoidal dose response with a variable slope model using the GraphPad Prism 6.0 software.

In test [2] the target is ABL1 (Homo sapiens, UniProt P00519). As to the kind of experiment: ABL kinase assay (Z'-LYTE biochemical kinase profiling). As to conditions: ATP 10 μM final. On the procedure: ABL Kinase Assays (Data in FIG. 1)
The direct inhibitory effect of the test compounds on the ABL kinases activity was assessed using the Z′-LYTE biochemical kinase profiling assays (SelectScreen Kinase Profiling assays, Life Technologies). The Z′-LYTE biochemical assay employs a fluorescence-based, coupled-enzyme format and is based on the differential sensitivity of phosphorylated and non-phosphorylated peptides to proteolytic cleavage. The peptide substrate is labeled with two fluorophores (one at each end) that make up a FRET pair. In the primary reaction, the kinase transfers the gamma-phosphate of ATP to a single tyrosine, serine or threonine residue in a synthetic FRET-peptide. In the secondary reaction, a site-specific protease recognizes and cleaves non-phosphorylated FRET-peptides. Phosphorylation of FRET-peptides suppresses cleavage by the Development Reagent. Cleavage disrupts FRET between the donor and acceptor fluorophores on the FRET-peptide, whereas uncleaved, phosphorylated FRET-peptides maintain FRET. The extent of phosphorylation of the FRET-peptide can be calculated from the Emission Ratio between cleaved and uncleaved FRET-peptides. The Emission Ratio will remain low if the FRET-peptide is phosphorylated (i.e., no kinase inhibition) and will be high if the FRET-peptide is non-phosphorylated (i.e., kinase inhibition).
Using the above described assay, The Test Compounds were screened in 1% DMSO (final) in the well. 10 point titrations, 3-fold serial dilutions were conducted. Briefly, in a black 384-well plate serial dilutions of test compound or 100 nL 100× were mixed with kinase buffer peptide/Kinase Mixture and ATP Solution (10 μM final). After one hour Kinase Reaction incubation at room temperature, the development Reagent Solution was added. Subsequently, the fluorescence signals were measured using a fluorescence plate reader. Data were analyzed and the IC50 were calculated with XLfit graphing software using the sigmoidal dose-response model.

Test [3] has as its system A549. The experiment in a line: Cell viability assay in solid tumor cell lines (Cell-Titer Glo), A549. It is filed as cell-based. Particulars: Homo sapiens, 72 hours. Here is the method:
(§1) Cell Viability Assay in Solid Tumors Cell Lines (Data in FIG. 2)
(§2) Human cancer cell lines (lung, ovarian, breast pancreatic and mesothelioma) were purchased from the ATCC. The cell lines were cultured in RPMI 1640 (Life Technologies, Carlsbad, Calif.) supplemented with 10% fetal bovine serum (FBS) and antibiotics. […] At the end of treatment, cell proliferation was determined by an intracellular adenosine triphosphate monitoring system (Cell-Titer Glo-Promega).
(§3) Inhibitory activity was evaluated comparing treated versus control data using the GraphPad Prism 6.0 software.

For test [4], the system named is OVCAR8. The experiment in a line: Cell viability assay in solid tumor cell lines (Cell-Titer Glo), OVCAR8. In kind it is cell-based. As to conditions: Homo sapiens, OVCAR-8, 72 hours. On the procedure:
as §1, §2, §3

The subject of test [5] is bovine brain tubulin. The experiment in a line: Tubulin polymerization assay (Cytoskeleton kit BK011P). It is filed as biochemical. As to conditions: % Inhibition versus control; compound concentration of 4 μM. From the text: Tubulin Polymerization Assay (Data in FIG. 1)
The high-throughput screening-tubulin polymerization assay kit (Cytoskeleton, Cat. #BK011P) is an economical one step procedure for determining the effects of drugs or proteins on tubulin polymerization. Polymerization is followed by fluorescence enhancement due to the incorporation of a fluorescent reporter into microtubules as polymerization occurs. The standard assay tubulin generates a polymerization curve representing the three phases of microtubule formation, namely nucleation, growth, and steady state equilibrium. Compounds that interact with tubulin will often alter one or more of the characteristic phases of polymerization. For example, the anti-mitotic drug paclitaxel eliminates the nucleation phase and enhances the Vmax of the growth phase. Similarly, the microtubule destabilizing drug, vinblastine (also antimitotic) causes a decrease in Vmax and a reduction in final polymer mass. Thus, one application of this assay is the identification of novel anti-mitotics.
The direct effects of the test compounds on tubulin polymerization were investigated using the abovementioned Tubulin polymerization assay kit (Cytoskeleton, Cat. #BK011P), as indicated by the manufacturer protocol. Briefly, bovine brain tubulin (400 μg/sample) in the presence of either 0.5% DMSO treated (control), 4 μM test compounds, 3 μM paclitaxel (Cytoskeleton), or 3 μM vinblastine (Cytoskeleton) was incubated in PEM buffer [80 mm PIPES, 1 mm EGTA, 1 mm MgCl2 (pH 6.8)] containing 1.0 mm GTP (G-PEM) and 15% glycerol, at 37 C. All samples (wells) contained 15% glycerol. The degree of polymerization over time was measured in a spectrophotometer (Biotek synergy HT plate reader) at 350 nm. All time points were plotted and analyzed using GraphPad Prism 6.0 software.
DMSO control was set as 0% inhibition. Positive values depict the percentage of decrease in Vmax and final polymer mass, as compared to control. Negative values are inversely correlated to degree of nucleation phase elimination and the percentage of increase of the Vmax, as compared to control.

T1 sequence (P09874 whole entry): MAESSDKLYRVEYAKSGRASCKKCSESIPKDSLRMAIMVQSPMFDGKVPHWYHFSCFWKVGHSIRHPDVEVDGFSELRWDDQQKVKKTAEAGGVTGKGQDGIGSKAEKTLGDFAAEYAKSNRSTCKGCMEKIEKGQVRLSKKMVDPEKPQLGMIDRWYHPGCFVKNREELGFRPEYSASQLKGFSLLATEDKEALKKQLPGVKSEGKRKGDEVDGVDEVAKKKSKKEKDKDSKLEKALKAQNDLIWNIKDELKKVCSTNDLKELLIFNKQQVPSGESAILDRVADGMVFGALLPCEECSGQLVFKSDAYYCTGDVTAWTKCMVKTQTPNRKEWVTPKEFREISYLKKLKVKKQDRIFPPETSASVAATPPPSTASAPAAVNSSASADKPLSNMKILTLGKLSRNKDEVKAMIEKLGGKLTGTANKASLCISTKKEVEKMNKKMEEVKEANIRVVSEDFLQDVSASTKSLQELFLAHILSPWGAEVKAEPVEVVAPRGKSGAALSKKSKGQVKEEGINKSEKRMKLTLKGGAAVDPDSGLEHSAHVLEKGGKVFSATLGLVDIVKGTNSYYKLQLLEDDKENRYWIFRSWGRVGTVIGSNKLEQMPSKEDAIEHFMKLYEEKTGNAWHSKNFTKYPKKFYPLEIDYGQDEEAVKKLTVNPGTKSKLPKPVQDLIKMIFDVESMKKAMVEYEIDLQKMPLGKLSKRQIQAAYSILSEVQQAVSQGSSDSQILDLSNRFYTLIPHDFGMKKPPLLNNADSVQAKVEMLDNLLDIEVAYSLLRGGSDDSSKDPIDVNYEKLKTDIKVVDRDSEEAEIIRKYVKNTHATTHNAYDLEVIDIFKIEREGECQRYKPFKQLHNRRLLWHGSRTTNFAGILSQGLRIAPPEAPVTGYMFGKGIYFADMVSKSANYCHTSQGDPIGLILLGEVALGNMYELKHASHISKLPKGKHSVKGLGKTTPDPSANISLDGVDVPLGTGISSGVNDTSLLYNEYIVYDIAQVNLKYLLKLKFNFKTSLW
Chain of ABL1 (P00519 whole entry): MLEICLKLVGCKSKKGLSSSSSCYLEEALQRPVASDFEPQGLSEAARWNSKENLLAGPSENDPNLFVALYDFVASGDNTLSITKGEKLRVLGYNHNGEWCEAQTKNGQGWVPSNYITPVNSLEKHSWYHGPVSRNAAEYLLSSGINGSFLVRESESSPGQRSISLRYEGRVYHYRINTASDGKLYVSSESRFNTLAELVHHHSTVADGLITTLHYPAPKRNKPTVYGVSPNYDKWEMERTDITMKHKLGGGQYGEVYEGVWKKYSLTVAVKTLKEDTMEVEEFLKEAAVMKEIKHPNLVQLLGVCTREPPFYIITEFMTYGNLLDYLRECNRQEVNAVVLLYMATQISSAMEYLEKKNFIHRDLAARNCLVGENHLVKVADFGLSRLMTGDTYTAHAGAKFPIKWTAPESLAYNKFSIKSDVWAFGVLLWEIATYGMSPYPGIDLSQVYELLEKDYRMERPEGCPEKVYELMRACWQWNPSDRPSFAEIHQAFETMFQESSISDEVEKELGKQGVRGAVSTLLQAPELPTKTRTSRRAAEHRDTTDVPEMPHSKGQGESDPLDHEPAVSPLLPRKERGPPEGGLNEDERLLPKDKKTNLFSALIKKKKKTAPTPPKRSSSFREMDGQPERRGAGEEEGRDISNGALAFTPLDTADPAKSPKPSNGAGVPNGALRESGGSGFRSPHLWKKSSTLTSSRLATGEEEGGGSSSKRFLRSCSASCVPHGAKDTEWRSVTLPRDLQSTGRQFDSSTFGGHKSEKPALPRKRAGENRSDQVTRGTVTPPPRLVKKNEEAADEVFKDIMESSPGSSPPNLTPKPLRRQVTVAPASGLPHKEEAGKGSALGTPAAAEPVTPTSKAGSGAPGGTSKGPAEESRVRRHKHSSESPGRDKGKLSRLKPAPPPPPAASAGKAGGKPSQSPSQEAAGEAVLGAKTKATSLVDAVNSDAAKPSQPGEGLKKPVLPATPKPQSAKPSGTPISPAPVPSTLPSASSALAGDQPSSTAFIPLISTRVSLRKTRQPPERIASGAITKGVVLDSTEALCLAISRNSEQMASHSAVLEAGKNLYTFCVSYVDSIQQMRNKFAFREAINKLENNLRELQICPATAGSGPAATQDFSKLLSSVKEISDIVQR

One may read the IC50 as the concentration needed to halve the response being measured. Higher therefore signals a need for much substance. With `CCOC(=O)Nc1nc2cc(-c3n[nH]c(=O)c4cccc(Cl)c34)ccc2[nH]1` [Compound No. 20, Ethyl (5-(8-chloro-4-oxo-3,4-dihydrophthalazin-1-yl)-1H-benzimidazol-2-yl)carbamate], the half-inhibitory concentration (IC50) in test [1] is greater than 10 µM; in test [2] it was 500 to 1000 nM; in test [3], 1000 to 5000 nM; in test [4], 500 to 1000 nM.

For `CCNC(=O)Nc1nc2cc(-c3n[nH]c(=O)c4ccccc34)ccc2[nH]1` [Compound No. 80, 1-Ethyl-3-(5-(4-oxo-3,4-dihydrophthalazin-1-yl)-1H-benzimidazol-2-yl)urea], the IC50 in test [1] is greater than 10 µM; in test [2] it was less than 500 nM; in test [3], 1000 to 5000 nM; in test [4] it was 1000 to 5000 nM.

`CCOC(=O)Nc1nc2cc(-c3n[nH]c(=O)c4ccc(F)cc34)ccc2[nH]1` [Compound No. 9, Ethyl (5-(7-fluoro-4-oxo-3,4-dihydrophthalazin-1-yl)-1H-benzimidazol-2-yl)carbamate]: the IC50 in test [1] was greater than 10 µM; in test [2] it was less than 500 nM; in test [3], less than 500 nM; in test [4], less than 500 nM.

Turning to `CCOC(=O)Nc1nc2cc(-c3n[nH]c(=O)c4ccc(Cl)cc34)ccc2[nH]1` [Compound No. 21, Ethyl (5-(7-chloro-4-oxo-3,4-dihydrophthalazin-1-yl)-1H-benzimidazol-2-yl)carbamate], the IC50 in test [1] was greater than 10 µM; in test [2], less than 500 nM; in test [3], 500 to 1000 nM; in test [4], 500 to 1000 nM.

In the case of `COC(=O)Nc1nc2cc(-c3n[nH]c(=O)c4ccccc34)ccc2[nH]1` [Compound No. 2, Methyl (5-(4-oxo-3,4-dihydrophthalazin-1-yl)-1H-benzimidazol-2-yl)carbamate], the concentration for half-maximal inhibition (IC50) is greater than 10 µM in test [1], 500 to 1000 nM in test [2], 1000 to 5000 nM in test [3] and 1000 to 5000 nM in test [4]. The “Tubulin Polymerization Inhibition” value in test [5] is reported as “X (X = (% Inhibition versus control) <20%. Results with a compound concentration of 4 μM)”.

For `CCOC(=O)Nc1nc2cc(-c3n[nH]c(=O)c4cc(Cl)c(Cl)cc34)ccc2[nH]1` [Compound No. 23, Ethyl (5-(6,7-dichloro-4-oxo-3,4-dihydrophthalazin-1-yl)-1H-benzimidazol-2-yl)carbamate], the IC50 is 1 to 5 µM in test [1], less than 500 nM in test [2], 500 to 1000 nM in test [3] and less than 500 nM in test [4].

In the case of `CCOC(=O)Nc1nc2cc(-c3n[nH]c(=O)c4ccccc34)cc(Br)c2[nH]1` [Compound No. 140, Ethyl (7-bromo-5-(4-oxo-3,4-dihydrophthalazin-1-yl)-1H-benzimidazol-2-yl)carbamate], the 50% inhibitory concentration (IC50) is 5 to 10 µM in test [1], less than 500 nM in test [2], less than 500 nM in test [3] and less than 500 nM in test [4].

As to `CCOC(=O)Nc1nc2cc(-c3n[nH]c(=O)c4ccccc34)cc(C)c2[nH]1` [Compound No. 145, Ethyl (7-methyl-5-(4-oxo-3,4-dihydrophthalazin-1-yl)-1H-benzimidazol-2-yl)carbamate], the IC50 in test [1] was greater than 10 µM; in test [2] it was 5000 to 10000 nM; in test [3], less than 500 nM; in test [4] it was less than 500 nM.

`CCCC(=O)Nc1nc2cc(-c3n[nH]c(=O)c4ccccc34)cc(Cl)c2[nH]1` [Compound No. 139, N-(7-chloro-5-(4-oxo-3,4-dihydrophthalazin-1-yl)-1H-benzimidazol-2-yl)butyramide]: the IC50 in test [2], in test [3] and in test [4] was less than 500 nM in each case.

For `COCCOC(=O)Nc1nc2cc(-c3n[nH]c(=O)c4ccccc34)ccc2[nH]1` [Compound No. 3, 2-Methoxyethyl (5-(4-oxo-3,4-dihydrophthalazin-1-yl)-1H-benzimidazol-2-yl)carbamate], the IC50 in test [1] lay in the range of 5 to 10 µM; in test [2] it was 500 to 1000 nM; in test [3] it was 1000 to 5000 nM; in test [4], 1000 to 5000 nM. In test [5], the “Tubulin Polymerization Inhibition” value was “Y (Y = (% Inhibition versus control) ≤20%. Results with a compound concentration of 4 μM)”.

With `CCCC(=O)Nc1nc2cc(-c3n[nH]c(=O)c4ccccc34)ccc2[nH]1` [Compound No. 86, N-(5-(4-oxo-3,4-dihydrophthalazin-1-yl)-1H-benzimidazol-2-yl)butyramide], the IC50 is 5 to 10 µM in test [1], less than 500 nM in test [2], less than 500 nM in test [3] and less than 500 nM in test [4].

With `CCOC(=O)Nc1nc2cc(-c3n[nH]c(=O)c4ccccc34)cc(Cl)c2[nH]1` [Compound No. 135, Ethyl (7-chloro-5-(4-oxo-3,4-dihydrophthalazin-1-yl)-1H-benzimidazol-2-yl)carbamate], the 50% inhibitory concentration (IC50) in test [1] is 1 to 5 µM; in test [2], less than 500 nM; in test [3], less than 500 nM; in test [4] it was less than 500 nM.

Consider `CCOC(=O)Nc1nc2cc(-c3n[nH]c(=O)c4cc(F)c(F)cc34)ccc2[nH]1` [Compound No. 11, Ethyl (5-(6,7-difluoro-4-oxo-3,4-dihydrophthalazin-1-yl)-1H-benzimidazol-2-yl)carbamate], for which the IC50 in test [1] was greater than 10 µM; in test [2], less than 500 nM; in test [3], less than 500 nM; in test [4] it was less than 500 nM.
